According to patent US12005122B2, “Compounds and methods for diagnosis and treatment of viral infections” (priority 2016, dated 2024):

What was measured:
[1] = test system: Zika virus; test: Zika virus plaque assay on Vero cells; type: cell-based; settings: Vero cells infected with Zika virus
[2] = test system: Zika virus; test: Percent infectivity of Zika-infected VERO cells (FIG. 5); type: cell-based; settings: FIGS. 4 and 5; 5 μM and 1 μM

For “dextran 3-[(2-aminoethyl)thio]propyl 17-carboxy-10,13,16-tris(carboxymethyl)-8-oxo-4-thia-7,10,13,16-tetraazaheptadec-1-yl 3-[[2-[[1-imino-2-(D-mannopyranosylthio)ethyl]amino]ethyl]thio]propyl ether complexes [Tilmanocept]”, the “Reduction of Zika virus in infected Vero cells” value [1] was 99.9% and the “Effect on Zika infection of VERO cells” value [2] was “no effect”.
